The text below walks through data of patent US8309064B2, “Skin care compositions comprising phenoxyalkyl amines” (Conopco, Inc., priority 2009, dated 2012).

The subject of the first experiment is Melanoderm tissue equivalent model MEL-300 containing melanocytes. Description: Inhibition of melanogenesis (total melanin content) in Melanoderm tissue equivalent model. The note with it: Melanocyte, 336 h; 5 μM in maintenance medium, 14 days, total melanin content, DMSO vehicle control. The class given is cell-based. As for the experimental part:
Melanoderm tissue equivalent model MEL-300 (MatTek: Ashland, Mass.) containing melanocytes obtained from dark skin individuals were cultured as per supplier instructions. Components were added to the maintenance medium phase (no topical treatments) at a final concentration of 5 μM for 14 days at which time the experiment was terminated and the tissues assessed for melanin content. Medium and treatments were changed three times per week. DMSO was utilized as the vehicle control and all treatments were performed at least in duplicate.
For quantification of total melanin, each Melanoderm was placed into an individual Eppendorf tube (2 mL) into which 250 μL of Solvable™ tissue solubilizer (Packard Bioscience Co., Cat#6NE9100) was added. Each tube was vortexed and incubated at 60° C. for 18 hours. Each sample was then centrifuged (5-minutes at 13,000 RPMs) to remove any particulates. 100 or 200 μL of supernatant were transferred to a 96 well microtiter plate and the absorbance read at 490 nm. Total melanin content was calculated from a standard curve using synthetic melanin (Sigma Cat# M8631). Data was analyzed for significance using the t-test in Microsoft Excel to generate p-values (p-values less than 0.01 represent 99% confidence, p values of 0.05 represent 95% confidence both of which are statistically significant).
What is called inhibition is the change of the read-out against control, counted positive when it falls. Regarding `Cc1ccccc1OCCCCCCN(CCO)CCO` [5m, 6-(o-tolyloxy)-N,N-di(2-hydroxyethyl)hexan-1-amine], the inhibition at 5 µM amounted to 32.9%.

Consider `CC(C)c1ccccc1OCCCCCCN(C)C` [5t, 6-(2-isopropylphenoxy)-N,N-dimethylhexan-1-amine], for which the inhibition at 5 µM amounted to 48.5%.

As to `Cc1ccccc1OCCCCNCCO` [5e, 2-(4-(o-tolyloxy)butylamino)ethanol], the inhibition at 5 µM worked out at 17.9%.

Consider `CCc1ccccc1OCCCCCCN(C)C` [5r, 6-(2-ethylphenoxy)-N,N-dimethylhexan-1-amine], for which the inhibition at 5 µM was 32.9%.

In the case of `Cc1ccccc1OCCCCCCn1ccnc1` [5o, 1-(6-(o-tolyloxy)hexyl)-1H-imidazole], the inhibition at 5 µM came out at 22.1%.

Take `CN(C)CCCCCCOc1ccccc1-c1ccccc1` [5v, 6-(2-phenylphenoxy)-N,N-dimethylhexan-1-amine]: the inhibition at 5 µM amounted to 56.7%.

With `OCCNCCCCCCOc1ccccc1` [5a, 2-(6-phenoxyhexylamino)ethanol], the inhibition at 5 µM is 21.9%.

Turning to `OCCNCCCCCCOC1CCCCC1` [5ll, 2-(6-(cyclohexyloxy)hexylamino)ethanol], the inhibition at 5 µM stood at 25%.

As to `Cc1ccccc1OCCCCCCN(C)C` [5j, 6-(o-tolyloxy)-N,N-dimethylhexan-1-amine], the inhibition at 5 µM came out at 24.2%.

Turning to `Cc1ccccc1OCCNCCO` [5g, 2-(2-(o-tolyloxy)ethylamino)ethanol], the inhibition at 5 µM is 3.2%.

For the molecule `Cc1ccccc1OCCCCCCN` [5ii, 6-(o-tolyloxy)hexan-1-amine], the inhibition at 5 µM is -6.9%.

`Cc1cccc(OCCCCCCN(C)C)c1` [5p, 6-(m-tolyoxy)-N,N-dimethylhexan-1-amine]: the inhibition at 5 µM amounted to 37.1%.

For `CCN(C)CCCCCCOc1ccccc1C` [5k, 6-(o-tolyoxy)-N-ethyl-N-methylhexan-1-amine], the inhibition at 5 µM worked out at 23.6%.

For the molecule `Cc1ccccc1OCCCCCCNC(C)(C)C` [5i, 6-(o-tolyloxy)-N-tert-butylhexan-1-amine], the inhibition at 5 µM came to 23.2%.

`Cc1ccccc1OCCCNCCO` [5f, 2-(3-(o-tolyloxy)propyalmino)ethanol]: the inhibition at 5 µM stood at 10.7%.

For the molecule `Cc1ccc(OCCCCCCNC(C)(C)C)cc1` [5y, 6-(p-tolyloxy)-N-tert-butylhexan-1-amine], the inhibition at 5 µM amounted to 47.5%.

For `Cc1ccccc1OCCCCCCNCCO` [5b, 2-[[6-(2-methylphenoxy)hexyl]amino]-ethanol], the inhibition at 5 µM turned out to be 24.1%.

Turning to `CC(C)(C)NCCCCCCOc1ccccc1-c1ccccc1` [5dd, 6-(2-phenylphenoxy)-N-tert-butylhexan-1-amine], the inhibition at 5 µM stood at 54.8%.

With `CCN(CC)CCCCCCOc1ccccc1C` [5l, 6-(o-tolyloxy)-N,N-diethylhexan-1-amine], the inhibition at 5 µM stood at 45.6%.

Regarding `CCNCCCCCCOc1ccccc1C` [5ff, 6-(o-tolyloxy)-N-ethylhexan-1-amine], the inhibition at 5 µM amounted to 18.1%.

As for `COCCNCCCCCCOc1ccccc1C` [5c, 6-(o-tolyloxy)-N-(2-methoxyethyl)hexan-1-amine], the inhibition at 5 µM was found to be 31.7%.

For the molecule `CC(C)(C)NCCCCCCOc1cccc2ccccc12` [5ee, N-tert-butyl-6-(naphthalen-4-yloxy)hexan-1-amine], the inhibition at 5 µM was 35.9%.

With `CN(C)CCCCCCOc1cccc2ccccc12` [5w, N,N-dimethyl-6-(naphthalen-4-yloxy)hexan-1-amine], the inhibition at 5 µM was found to be 51.3%.

Regarding `Cc1ccccc1OCCCCCNCCO` [5d, 2-(5-(o-tolyloxy)pentylamino)ethanol], the inhibition at 5 µM was found to be 20.8%.

For the molecule `Cc1ccc(OCCCCCCN(C)C)cc1` [5q, 6-(p-tolyoxy)-N,N-dimethylhexan-1-amine], the inhibition at 5 µM amounted to 41.5%.

Consider `CCNCCCCCCOc1cccc2ccccc12` [5gg, N-ethyl-6-(naphthalen-1-yloxy)hexan-1-amine], for which the inhibition at 5 µM came out at 35%.

For `CC(=O)N(CCO)CCCCCCOc1ccccc1C` [5jj, N-(6-(o-tolyloxy)hexyl)-N-(2-hydroxyethyl)acetamide], the inhibition at 5 µM was -5.2%.

Regarding `OCCNCCCCCCCc1ccccc1` [5kk, 2-(7-phenylheptylamino)ethanol], the inhibition at 5 µM stood at 32.7%.

On to `CC(C)(C)NCCCCCCOc1ccccc1C(C)(C)C` [5cc, 6-(2-tert-butylphenoxy)-N-tert-butylhexan-1-amine], for which the inhibition at 5 µM stood at 55.2%.

Regarding `CCNCCCCCCOc1ccccc1CC` [5hh, 6-(2-ethylphenoxy)-N-ethylhexan-1-amine], the inhibition at 5 µM came to 37.1%.

Consider `CC(C)c1ccccc1OCCCCCCNC(C)(C)C` [5bb, 6-(2-isopropylphenoxy)-N-tert-butylhexan-1-amine], for which the inhibition at 5 µM was 44.2%.

As for `Cc1ccccc1OCCCCCCN1CCOCC1` [5n], the inhibition at 5 µM turned out to be 42.1%.

For the molecule `CN(C)CCCCCCOc1ccccc1C(C)(C)C` [5u, 6-(2-tert-butylphenxoy)-N,N-dimethylhexan-1-amine], the inhibition at 5 µM was found to be 49.6%.

Still in this experiment, the particulars now being: Melanoderm MEL-300, 5 μM, 14 days.
Take `Cc1ccccc1OCCCCCCNCCO` [5b, 2-[[6-(2-methylphenoxy)hexyl]amino]-ethanol]: the “melanogenesis inhibition (in words)” value is “highest melanogenesis inhibition in this set”.

With `Cc1ccccc1OCCCCCNCCO` [5d, 2-(5-(o-tolyloxy)pentylamino)ethanol], the “melanogenesis inhibition (in words)” value was “highest melanogenesis inhibition in this set”.
